{"source": "patent US20070026408A1", "about": "“Materials and methods for analysis of atp-binding cassette transporter gene expression” (priority 2003, published 2007)", "key": {"abcA3": {"tested_on": "abcA3", "assay": "DT1 microarray drug screening, drug-treated HepG2: abcA3", "assay_type": "cell-based, human", "details": "HepG2, doxorubicin HCl 25 nM, standard 11", "description": "(§1) The labelled cDNA target preparation was thawed and the 150 μl added to 850 ul hybridisation buffer (500 mM sodium Phosphate pH 6.0, 1% SDS, 1% BSA, 1 mM EDTA) in a 1.5 ml microtube and heated at 95° C. for 10 min."}, "abcG8": {"tested_on": "abcG8", "assay": "DT1 microarray drug screening, drug-treated HepG2: abcG8", "assay_type": "cell-based, human", "details": "HepG2, doxorubicin HCl 25 nM, standard 11", "description": "as §1"}, "abcA7": {"tested_on": "abcA7", "assay": "DT1 microarray drug screening, drug-treated HepG2: abcA7", "assay_type": "cell-based, human", "details": "HepG2, doxorubicin HCl 25 nM, standard 11", "description": "as §1"}, "abcA1": {"tested_on": "abcA1", "assay": "DT1 microarray drug screening, drug-treated HepG2: abcA1", "assay_type": "cell-based, human", "details": "HepG2, doxorubicin HCl 25 nM, standard 11", "description": "as §1"}, "abcA6": {"tested_on": "abcA6", "assay": "DT1 microarray drug screening, drug-treated HepG2: abcA6", "assay_type": "cell-based, human", "details": "HepG2, doxorubicin HCl 25 nM, standard 11", "description": "as §1"}, "abcC4": {"tested_on": "abcC4", "assay": "DT1 microarray drug screening, drug-treated HepG2: abcC4", "assay_type": "cell-based, human", "details": "HepG2, doxorubicin HCl 25 nM, standard 11", "description": "as §1"}, "abcA5": {"tested_on": "abcA5", "assay": "DT1 microarray drug screening, drug-treated HepG2: abcA5", "assay_type": "cell-based, human", "details": "HepG2, doxorubicin HCl 25 nM, standard 11", "description": "as §1"}, "abcF3": {"tested_on": "abcF3", "assay": "DT1 microarray drug screening, drug-treated HepG2: abcF3", "assay_type": "cell-based, human", "details": "HepG2, doxorubicin HCl 25 nM, standard 11", "description": "as §1"}, "abcD1": {"tested_on": "abcD1", "assay": "DT1 microarray drug screening, drug-treated HepG2: abcD1", "assay_type": "cell-based, human", "details": "HepG2, doxorubicin HCl 25 nM, standard 11", "description": "as §1"}, "abcA10": {"tested_on": "abcA10", "assay": "DT1 microarray drug screening, drug-treated HepG2: abcA10", "assay_type": "cell-based, human", "details": "HepG2, doxorubicin HCl 25 nM, standard 11", "description": "as §1"}, "abcG1": {"tested_on": "abcG1", "assay": "DT1 microarray drug screening, drug-treated HepG2: abcG1", "assay_type": "cell-based, human", "details": "HepG2, doxorubicin HCl 25 nM, standard 11", "description": "as §1"}, "abcD2": {"tested_on": "abcD2", "assay": "DT1 microarray drug screening, drug-treated HepG2: abcD2", "assay_type": "cell-based, human", "details": "HepG2, doxorubicin HCl 25 nM, standard 11", "description": "as §1"}, "abcB4": {"tested_on": "abcB4", "assay": "DT1 microarray drug screening, drug-treated HepG2: abcB4", "assay_type": "cell-based, human", "details": "HepG2, doxorubicin HCl 25 nM, standard 11", "description": "as §1"}, "abcC1": {"tested_on": "abcC1", "assay": "DT1 microarray drug screening, drug-treated HepG2: abcC1", "details": "HepG2, doxorubicin HCl 25 nM, standard 11"}, "abcA8": {"tested_on": "abcA8", "assay": "DT1 microarray drug screening, drug-treated HepG2: abcA8", "assay_type": "cell-based, human", "details": "HepG2, doxorubicin HCl 25 nM, standard 11", "description": "as §1"}, "abcG5": {"tested_on": "abcG5", "assay": "DT1 microarray drug screening, drug-treated HepG2: abcG5", "assay_type": "cell-based, human", "details": "HepG2, doxorubicin HCl 25 nM, standard 11", "description": "as §1"}, "abcD3": {"tested_on": "abcD3", "assay": "DT1 microarray drug screening, drug-treated HepG2: abcD3", "assay_type": "cell-based, human", "details": "HepG2, doxorubicin HCl 25 nM, standard 11", "description": "as §1"}, "abcB9": {"tested_on": "abcB9", "assay": "DT1 microarray drug screening, drug-treated HepG2: abcB9", "assay_type": "cell-based, human", "details": "HepG2, doxorubicin HCl 25 nM, standard 11", "description": "as §1"}, "abcD4": {"tested_on": "abcD4", "assay": "DT1 microarray drug screening, drug-treated HepG2: abcD4", "assay_type": "cell-based, human", "details": "HepG2, doxorubicin HCl 25 nM, standard 11", "description": "as §1"}, "abcE1": {"tested_on": "abcE1", "assay": "DT1 microarray drug screening, drug-treated HepG2: abcE1", "assay_type": "cell-based, human", "details": "HepG2, doxorubicin HCl 25 nM, standard 11", "description": "as §1"}, "abcA9": {"tested_on": "abcA9", "assay": "DT1 microarray drug screening, drug-treated HepG2: abcA9", "assay_type": "cell-based, human", "details": "HepG2, doxorubicin HCl 25 nM, standard 11", "description": "as §1"}, "abcG2": {"tested_on": "abcG2", "assay": "DT1 microarray drug screening, drug-treated HepG2: abcG2", "assay_type": "cell-based, human", "details": "HepG2, doxorubicin HCl 25 nM, standard 11", "description": "as §1"}, "abcB2": {"tested_on": "abcB2", "assay": "DT1 microarray drug screening, drug-treated HepG2: abcB2", "assay_type": "cell-based, human", "details": "HepG2, doxorubicin HCl 25 nM, standard 11", "description": "as §1"}, "abcA4": {"tested_on": "abcA4", "assay": "DT1 microarray drug screening, drug-treated HepG2: abcA4", "assay_type": "cell-based, human", "details": "HepG2, doxorubicin HCl 25 nM, 2 h, standard 11", "description": "as §1"}}, "note": "Structures can show the parent of a compound that is named as a salt."}
{"smiles": "COc1cccc2c1C(=O)c1c(O)c3c(c(O)c1C2=O)C[C@@](O)(C(=O)CO)C[C@@H]3O[C@H]1C[C@H](N)[C@H](O)[C@H](C)O1", "note": "[dox, doxorubicin HCl]", "values": [{"measurement": "relative level of abcA3 gene expression", "setting": "abcA3; 2 h", "value": 8.071}, {"measurement": "relative level of abcA3 gene expression", "setting": "abcA3; 4 h", "value": 4.291}, {"measurement": "relative level of abcA3 gene expression", "setting": "abcA3; 8 h", "value": 5.179}, {"measurement": "relative level of abcG8 gene expression", "setting": "abcG8; 2 h", "value": 4.697}, {"measurement": "relative level of abcG8 gene expression", "setting": "abcG8; 4 h", "value": 2.811}, {"measurement": "relative level of abcG8 gene expression", "setting": "abcG8; 8 h", "value": 2.9413}, {"measurement": "relative level of abcA7 gene expression", "setting": "abcA7; 2 h", "value": 1.842}, {"measurement": "relative level of abcA7 gene expression", "setting": "abcA7; 4 h", "value": 0.933}, {"measurement": "relative level of abcA7 gene expression", "setting": "abcA7; 8 h", "value": 0.9351}, {"measurement": "relative level of abcA1 gene expression", "setting": "abcA1; 2 h", "value": 3.053}, {"measurement": "relative level of abcA1 gene expression", "setting": "abcA1; 4 h", "value": 1.866}, {"measurement": "relative level of abcA1 gene expression", "setting": "abcA1; 8 h", "value": 2.346}, {"measurement": "relative level of abcA6 gene expression", "setting": "abcA6; 2 h", "value": 6.045}, {"measurement": "relative level of abcA6 gene expression", "setting": "abcA6; 4 h", "value": 3.367}, {"measurement": "relative level of abcA6 gene expression", "setting": "abcA6; 8 h", "value": 4.296}, {"measurement": "relative level of abcC4 gene expression", "setting": "abcC4; 2 h", "value": 2.612}, {"measurement": "relative level of abcC4 gene expression", "setting": "abcC4; 4 h", "value": 2.09}, {"measurement": "relative level of abcC4 gene expression", "setting": "abcC4; 8 h", "value": 2.286}, {"measurement": "relative level of abcA5 gene expression", "setting": "abcA5; 2 h", "value": 3.302}, {"measurement": "relative level of abcA5 gene expression", "setting": "abcA5; 4 h", "value": 2.021}, {"measurement": "relative level of abcA5 gene expression", "setting": "abcA5; 8 h", "value": 2.451}, {"measurement": "relative level of abcF3 gene expression", "setting": "abcF3; 2 h", "value": 3.921}, {"measurement": "relative level of abcF3 gene expression", "setting": "abcF3; 4 h", "value": 2.795}, {"measurement": "relative level of abcF3 gene expression", "setting": "abcF3; 8 h", "value": 2.793}, {"measurement": "relative level of abcD1 gene expression", "setting": "abcD1; 2 h", "value": 4.477}, {"measurement": "relative level of abcD1 gene expression", "setting": "abcD1; 4 h", "value": 3.386}, {"measurement": "relative level of abcD1 gene expression", "setting": "abcD1; 8 h", "value": 3.516}, {"measurement": "relative level of abcA10 gene expression", "setting": "abcA10; 2 h", "value": 4.82}, {"measurement": "relative level of abcA10 gene expression", "setting": "abcA10; 4 h", "value": 3.419}, {"measurement": "relative level of abcA10 gene expression", "setting": "abcA10; 8 h", "value": 3.793}, {"measurement": "relative level of abcG1 gene expression", "setting": "abcG1; 2 h", "value": 5.472}, {"measurement": "relative level of abcG1 gene expression", "setting": "abcG1; 4 h", "value": 3.555}, {"measurement": "relative level of abcG1 gene expression", "setting": "abcG1; 8 h", "value": 3.839}, {"measurement": "relative level of abcD2 gene expression", "setting": "abcD2; 2 h", "value": 2.503}, {"measurement": "relative level of abcD2 gene expression", "setting": "abcD2; 4 h", "value": 2.516}, {"measurement": "relative level of abcD2 gene expression", "setting": "abcD2; 8 h", "value": 2.409}, {"measurement": "relative level of abcB4 gene expression", "setting": "abcB4; 2 h", "value": 9.148}, {"measurement": "relative level of abcB4 gene expression", "setting": "abcB4; 4 h", "value": 5.624}, {"measurement": "relative level of abcB4 gene expression", "setting": "abcB4; 8 h", "value": 6.417}, {"measurement": "relative level of abcC1 gene expression", "setting": "abcC1; 2 h", "value": 7.005}, {"measurement": "relative level of abcC1 gene expression", "setting": "abcC1; 4 h", "value": 4.767}, {"measurement": "relative level of abcC1 gene expression", "setting": "abcC1; 8 h", "value": 5.056}, {"measurement": "relative level of abcA8 gene expression", "setting": "abcA8; 2 h", "value": 3.036}, {"measurement": "relative level of abcA8 gene expression", "setting": "abcA8; 4 h", "value": 1.786}, {"measurement": "relative level of abcA8 gene expression", "setting": "abcA8; 8 h", "value": 2.174}, {"measurement": "relative level of abcG5 gene expression", "setting": "abcG5; 2 h", "value": 2.201}, {"measurement": "relative level of abcG5 gene expression", "setting": "abcG5; 4 h", "value": 1.764}, {"measurement": "relative level of abcG5 gene expression", "setting": "abcG5; 8 h", "value": 1.752}, {"measurement": "relative level of abcD3 gene expression", "setting": "abcD3; 2 h", "value": 2.099}, {"measurement": "relative level of abcD3 gene expression", "setting": "abcD3; 4 h", "value": 1.787}, {"measurement": "relative level of abcD3 gene expression", "setting": "abcD3; 8 h", "value": 1.733}, {"measurement": "relative level of abcB9 gene expression", "setting": "abcB9; 2 h", "value": 8.388}, {"measurement": "relative level of abcB9 gene expression", "setting": "abcB9; 4 h", "value": 4.897}, {"measurement": "relative level of abcB9 gene expression", "setting": "abcB9; 8 h", "value": 5.523}, {"measurement": "relative level of abcD4 gene expression", "setting": "abcD4; 2 h", "value": 4.361}, {"measurement": "relative level of abcD4 gene expression", "setting": "abcD4; 4 h", "value": 3.103}, {"measurement": "relative level of abcD4 gene expression", "setting": "abcD4; 8 h", "value": 3.194}, {"measurement": "relative level of abcE1 gene expression", "setting": "abcE1; 2 h", "value": 4.155}, {"measurement": "relative level of abcE1 gene expression", "setting": "abcE1; 4 h", "value": 2.794}, {"measurement": "relative level of abcE1 gene expression", "setting": "abcE1; 8 h", "value": 3.088}, {"measurement": "relative level of abcA9 gene expression", "setting": "abcA9; 2 h", "value": 7.825}, {"measurement": "relative level of abcA9 gene expression", "setting": "abcA9; 4 h", "value": 4.817}, {"measurement": "relative level of abcA9 gene expression", "setting": "abcA9; 8 h", "value": 5.72}, {"measurement": "relative level of abcG2 gene expression", "setting": "abcG2; 2 h", "value": 2.989}, {"measurement": "relative level of abcG2 gene expression", "setting": "abcG2; 4 h", "value": 2.137}, {"measurement": "relative level of abcG2 gene expression", "setting": "abcG2; 8 h", "value": 2.08}, {"measurement": "relative level of abcB2 gene expression", "setting": "abcB2; 2 h", "value": 5.067}, {"measurement": "relative level of abcB2 gene expression", "setting": "abcB2; 4 h", "value": 3.715}, {"measurement": "relative level of abcB2 gene expression", "setting": "abcB2; 8 h", "value": 4.008}, {"measurement": "relative level of abcA4 gene expression", "setting": "abcA4", "value": 8.765}]}
